Reference: US20250163104A1, “MACROCYCLIC IMMUNOMODULATORS” (priority 2021, published 2025)
*1 amine or outer side, *2 acyl side, *3 side chain or, on linkers, in order; H or OH if unused. Where a SMILES comes first, the peptide text is derived from it. Bridges are numbered along the chain shown (N, C = ends). [ ]: non-standard residue; d: D form. The star is where a group is joined. ξ: configuration not given here. Bip(3'-COOH) = N[C@@H](Cc1ccc(-c2cccc(C(=O)O)c2)cc1)C(=O)O; Phe(4-COOH) = N[C@@H](Cc1ccc(C(=O)O)cc1)C(=O)O; Ala(thiazol-5-yl) = N[C@@H](Cc1cncs1)C(=O)O; Bip = N[C@@H](Cc1ccc(-c2ccccc2)cc1)C(=O)O; Phe(3-Cl) = N[C@@H](Cc1cccc(Cl)c1)C(=O)O; Phe(3-Me) = Cc1cccc(C[C@H](N)C(=O)O)c1; γGlu = O=C(O)[C@H](CCC(=O)[*:2])N[*:1]; Val(3-OH) = CC(C)(O)[C@H](N)C(=O)O; 3Pal = N[C@@H](Cc1cccnc1)C(=O)O; 4Pal = N[C@@H](Cc1ccncc1)C(=O)O; Cha = N[C@@H](CC1CCCCC1)C(=O)O; Cit = NC(=O)NCCC[C@H](N)C(=O)O; Thr(3ξ) = CC(O)[C@H](N)C(=O)O; dDab = NCC[C@@H](N)C(=O)O; Carboxymethyl = O=C(O)C*; Orn = NCCC[C@H](N)C(=O)O; Pra = C#CC[C@H](N)C(=O)O; Dab = NCC[C@H](N)C(=O)O; Dap = NC[C@H](N)C(=O)O; Piv = CC(C)(C)C(=O)*; Bn = c1ccc(C*)cc1

Biological target: T1, human PD-1 / PD-L1-Ig binding on Jurkat cell line over-expressing human PD-1 (Jurkat-PD-1) (Homo sapiens, UniProt Q15116)
T1 construct: expressed in transfected cells; host or cells: Jurkat
T1 sequence (Q15116 25-288): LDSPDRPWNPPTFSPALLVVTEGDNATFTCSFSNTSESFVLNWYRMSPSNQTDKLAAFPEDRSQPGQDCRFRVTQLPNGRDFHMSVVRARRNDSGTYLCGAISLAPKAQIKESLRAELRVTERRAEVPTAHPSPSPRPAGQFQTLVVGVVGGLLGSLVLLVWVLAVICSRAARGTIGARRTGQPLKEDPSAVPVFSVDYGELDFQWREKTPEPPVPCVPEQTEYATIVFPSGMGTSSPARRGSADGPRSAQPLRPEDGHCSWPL
Assay: Jurkat-PD-1 Cell Binding High-Content Screening Assay (CBA)
Assay type: cell-based
Conditions: Jurkat HPD1_PDL1 IC50, Jurkat-PD-1 cells, PE-labeled PD-L1-Ig 20 nM final
In short: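 Binding of fluorescent PD-L1-Ig (phycoerythrin linked via the Ig tag, 20 nM final) to PD-1-overexpressing Jurkat cells was imaged after a 2 h, 37° C compound pretreatment and 1 hour ligand incubation.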

For `CC(C)C[C@H]1NC(=O)[C@H](CCCN)NC(=O)[C@H](C(C)C)NC(=O)[C@H](Cc2ccc(-c3ccccc3)cc2)NC(=O)[C@H](Cc2ccc(OCc3ccccc3)cc2)NC(=O)[C@H](Cc2c[nH]c3ccccc23)NC(=O)[C@H](CC(=O)O)NC(=O)[C@H](Cc2ccc(OCC(=O)O)cc2)NC(=O)[C@H](CN)NC(=O)CSC[C@@H](C(=O)N[C@@H](C)C(N)=O)NC(=O)[C@H]([C@@H](C)O)NC(=O)[C@H](C(C)C)NC(=O)[C@H](CC2CCCCC2)NC(=O)[C@H](CCN)NC1=O` [Compound 1529] ({CH2CO}-[Dap]Y(Carboxymethyl)DWY(Bn)[Bip]V[Orn][dL][Dab][Cha]VTCA-NH2; thioether N-14), the IC50 was 43.5 nM.

Same assay, conditions: Jurkat-PD-1 cells, PE-labeled PD-L1-Ig 20 nM final; read-out: Jurkat HPD1_PDL1 IC50

Point of comparison: `CC(C)C[C@H]1NC(=O)[C@H](CCCN)NC(=O)[C@H](CCCNC(N)=O)NC(=O)[C@H](Cc2ccc(-c3ccccc3)cc2)NC(=O)[C@H](C(C)C)NC(=O)[C@H](Cc2c[nH]c3ccccc23)NC(=O)[C@H](CC(=O)O)NC(=O)[C@H](Cc2c[nH]c3ccccc23)NC(=O)[C@H](CN)NC(=O)CSC[C@@H](C(=O)N[C@@H](C)C(N)=O)NC(=O)[C@H]([C@@H](C)O)NC(=O)[C@H](C(C)C)NC(=O)[C@H](CC2CCCCC2)NC(=O)[C@H](CCN)NC1=O` [Compound 2122] ({CH2CO}-[Dap]WDWV[Bip][Cit][Orn][dL][Dab][Cha]VTCA-NH2; thioether N-14), IC50 31.3 nM. Against it:
- CC(C)C[C@H]1NC(=O)[C@H](CCCN)NC(=O)[C@H](CCC(=O)O)NC(=O)[C@H](Cc2ccc(-c3ccccc3)cc2)NC(=O)[C@H](C(C)C)NC(=O)[C@H](Cc2ccccc2F)NC(=O)[C@H](CC(=O)O)NC(=O)[C@H](Cc2ccc(C#N)cc2)NC(=O)[C@H](Cc2ccc(OCC(=O)O)cc2)NC(=O)CSC[C@@H](C(=O)N[C@@H](C)C(N)=O)NC(=O)[C@H]([C@@H](C)O)NC(=O)[C@H](C(C)C)NC(=O)[C@H](CC2CCCCC2)NC(=O)[C@H](CCN)NC1=O [Compound 2215] — within 1.5-fold, 30.4 nM
- CC(C)C[C@H]1NC(=O)[C@H](CCCN)NC(=O)[C@H](CCN)NC(=O)[C@H](Cc2ccc(-c3ccccc3)cc2)NC(=O)[C@H](C(C)C)NC(=O)[C@H](Cc2c[nH]c3ccccc23)NC(=O)[C@H](CC(=O)O)NC(=O)[C@H](Cc2ccc(C(=O)O)cc2)NC(=O)[C@H](Cc2ccc(OCC(=O)O)cc2)NC(=O)CSC[C@@H](C(=O)N[C@@H](C)C(N)=O)NC(=O)[C@H]([C@@H](C)O)NC(=O)[C@H](C(C)C)NC(=O)[C@H](CC2CCCCC2)NC(=O)[C@H](CCN)NC1=O [Compound 1383] — 1.6-fold lower, 19.1 nM
- Cc1cccc(C[C@@H]2NC(=O)[C@H](CC(=O)O)NC(=O)[C@H](Cc3ccc(OCC(=O)O)cc3)NC(=O)[C@H](Cc3cccnc3)NC(=O)CSC[C@@H](C(=O)N[C@@H](CCN)C(N)=O)NC(=O)[C@H](CCCN)NC(=O)[C@H](C(C)C)NC(=O)[C@H](CC3CCCCC3)NC(=O)[C@H](CCN)NC(=O)[C@@H](CC(C)C)NC(=O)[C@H](CCCN)NC(=O)[C@H](Cc3ccc(O)cc3)NC(=O)[C@H](Cc3ccc(-c4ccccc4)cc3)NC(=O)[C@H](Cc3ccc(O)cc3)NC2=O)c1 [Compound 2041] ({CH2CO}-[3Pal]Y(Carboxymethyl)D[Phe(3-Me)]Y[Bip]Y[Orn][dL][Dab][Cha]V[Orn]C[Dab]-NH2; thioether N-14) — 6.4-fold lower, 4.9 nM
- Cc1cccc(C[C@@H]2NC(=O)[C@H](CC(=O)O)NC(=O)[C@H](Cc3ccc(OCC(=O)O)cc3)NC(=O)[C@H](CN)NC(=O)CSC[C@@H](C(=O)N[C@@H](CCN)C(N)=O)NC(=O)[C@H](CCCN)NC(=O)[C@H](C(C)C)NC(=O)[C@H](CC3CCCCC3)NC(=O)[C@H](CCN)NC(=O)[C@@H](CC(C)C)NC(=O)[C@@H](CCN)NC(=O)[C@H](Cc3ccc(O)cc3)NC(=O)[C@H](Cc3ccc(-c4ccccc4)cc3)NC(=O)[C@H](Cc3ccc(O)cc3)NC2=O)c1 [Compound 2039] ({CH2CO}-[Dap]Y(Carboxymethyl)D[Phe(3-Me)]Y[Bip]Y[dDab][dL][Dab][Cha]V[Orn]C[Dab]-NH2; thioether N-14) — 2.4-fold lower, 12.9 nM
- CC[C@H](C)[C@@H]1NC(=O)[C@H](Cc2c[nH]c3ccccc23)NC(=O)[C@H](CC(=O)O)NC(=O)[C@H](Cc2ccc(OCC(=O)O)cc2)NC(=O)[C@H](CN)NC(=O)CSC[C@@H](C(=O)N[C@@H](C)C(N)=O)NC(=O)[C@H]([C@@H](C)O)NC(=O)[C@H](C(C)C)NC(=O)[C@H](CC2CCCCC2)NC(=O)[C@H](CCN)NC(=O)[C@@H](CC(C)C)NC(=O)[C@H](CCCN)NC(=O)[C@H](CCCNC(N)=O)NC(=O)[C@H](Cc2ccc(-c3ccccc3)cc2)NC1=O [Compound 1316] ({CH2CO}-[Dap]Y(Carboxymethyl)DWI[Bip][Cit][Orn][dL][Dab][Cha]VTCA-NH2; thioether N-14) — 3.4-fold lower, 9.1 nM
- C#CC[C@H](NC(=O)[C@H](CCN)NC(=O)[C@@H]1CSCC(=O)N[C@@H](CN)C(=O)N[C@@H](Cc2ccc(C(=O)O)cc2)C(=O)N[C@@H](CC(=O)O)C(=O)N[C@@H](Cc2cccc(C)c2)C(=O)N[C@@H](Cc2ccc(C(=O)O)cc2)C(=O)N[C@@H](Cc2ccc(-c3ccccc3)cc2)C(=O)N[C@@H](Cc2ccc(C(=O)O)cc2)C(=O)N[C@@H](CCCN)C(=O)N[C@H](CC(C)C)C(=O)N[C@@H](CCN)C(=O)N[C@@H](CC2CCCCC2)C(=O)N[C@@H](C(C)(C)O)C(=O)N[C@@H](CCCN)C(=O)N1)C(N)=O [Compound 1856] ({CH2CO}-[Dap][Phe(4-COOH)]D[Phe(3-Me)][Phe(4-COOH)][Bip][Phe(4-COOH)][Orn][dL][Dab][Cha][Val(3-OH)][Orn]C[Dab][Pra]-NH2; thioether N-14) — 5.2-fold lower, 6 nM
- CC(C)C[C@H]1NC(=O)[C@H](CCCN)NC(=O)[C@H](CCC(=O)O)NC(=O)[C@H](Cc2ccc(-c3ccccc3)cc2)NC(=O)[C@H](C(C)C)NC(=O)[C@H](Cc2c[nH]c3ccccc23)NC(=O)[C@H](CC(=O)O)NC(=O)[C@H](Cc2ccc(OCC(=O)O)cc2)NC(=O)[C@H](CN)NC(=O)CSC[C@@H](C(=O)N[C@@H](C)C(N)=O)NC(=O)[C@H]([C@@H](C)O)NC(=O)[C@H](C(C)C)NC(=O)[C@H](Cc2cncs2)NC(=O)[C@H](CCN)NC1=O [Compound 1503] ({CH2CO}-[Dap]Y(Carboxymethyl)DWV[Bip]E[Orn][dL][Dab][Ala(thiazol-5-yl)]VTCA-NH2; thioether N-14) — within 1.5-fold, 42.8 nM
- C#CC[C@H](NC(=O)CC[C@H](NC(=O)[C@H](CCN)NC(=O)[C@@H]1CSCC(=O)N[C@@H](CCN)C(=O)N[C@@H](Cc2ccc(OCC(=O)O)cc2)C(=O)N[C@@H](CC(=O)O)C(=O)N[C@@H](Cc2cccc(C)c2)C(=O)N[C@@H](Cc2ccc(C(=O)O)cc2)C(=O)N[C@@H](Cc2ccc(-c3ccccc3)cc2)C(=O)N[C@@H](Cc2ccc(C(=O)O)cc2)C(=O)N[C@@H](CCCN)C(=O)N[C@H](CC(C)C)C(=O)N[C@@H](Cc2cnc[nH]2)C(=O)N[C@@H](CC2CCCCC2)C(=O)N[C@@H](C(C)(C)O)C(=O)N[C@@H](CCC(=O)O)C(=O)N1)C(=O)O)C(N)=O [Compound 2678] ({CH2CO}-[Dab]Y(Carboxymethyl)D[Phe(3-Me)][Phe(4-COOH)][Bip][Phe(4-COOH)][Orn][dL]H[Cha][Val(3-OH)]EC[Dab][γGlu][Pra]-NH2; thioether N-14) — 2.6-fold lower, 12.2 nM
- CC(C)C[C@H]1NC(=O)[C@H](CCCN)NC(=O)[C@H](CCCNC(N)=O)NC(=O)[C@H](Cc2ccc(-c3ccccc3)cc2)NC(=O)[C@H](C(C)C)NC(=O)[C@H](Cc2c[nH]c3ccccc23)NC(=O)[C@H](CC(=O)O)NC(=O)[C@H](Cc2ccc(-c3cccc(C(=O)O)c3)cc2)NC(=O)[C@H](CN)NC(=O)CSC[C@@H](C(=O)N[C@@H](C)C(N)=O)NC(=O)[C@H]([C@@H](C)O)NC(=O)[C@H](C(C)C)NC(=O)[C@H](CC2CCCCC2)NC(=O)[C@H](CCN)NC1=O [Compound 2090] ({CH2CO}-[Dap][Bip(3'-COOH)]DWV[Bip][Cit][Orn][dL][Dab][Cha]VTCA-NH2; thioether N-14) — 4-fold lower, 7.8 nM
- CC(C)C[C@H]1NC(=O)[C@H](CCCN)NC(=O)[C@H](CCC(=O)O)NC(=O)[C@H](Cc2ccc(-c3ccccc3)cc2)NC(=O)[C@H](C(C)C)NC(=O)[C@H](Cc2cccc(Cl)c2)NC(=O)[C@H](CC(=O)O)NC(=O)[C@H](Cc2ccncc2)NC(=O)[C@H](CN)NC(=O)CSC[C@@H](C(=O)N[C@@H](C)C(N)=O)NC(=O)[C@H]([C@@H](C)O)NC(=O)[C@H](C(C)C)NC(=O)[C@H](CC2CCCCC2)NC(=O)[C@H](CCN)NC1=O [Compound 1496] ({CH2CO}-[Dap][4Pal]D[Phe(3-Cl)]V[Bip]E[Orn][dL][Dab][Cha]VTCA-NH2; thioether N-14) — 1.7-fold lower, 17.9 nM
- Cc1cccc(C[C@@H]2NC(=O)[C@H](CC(=O)O)NC(=O)[C@H](Cc3ccc(OCC(=O)O)cc3)NC(=O)[C@H](CN)NC(=O)CSC[C@@H](C(=O)N[C@@H](CCN)C(N)=O)NC(=O)[C@H](CCNC(=O)C(C)(C)C)NC(=O)[C@H](C(C)C)NC(=O)[C@H](CC3CCCCC3)NC(=O)[C@H](CCN)NC(=O)[C@@H](CC(C)C)NC(=O)[C@H](CCCN)NC(=O)[C@H](Cc3ccc(O)cc3)NC(=O)[C@H](Cc3ccc(-c4ccccc4)cc3)NC(=O)[C@H](Cc3ccc(O)cc3)NC2=O)c1 [Compound 2044] ({CH2CO}-[Dap]Y(Carboxymethyl)D[Phe(3-Me)]Y[Bip]Y[Orn][dL][Dab][Cha]V[Dab](Piv)C[Dab]-NH2; thioether N-14) — 3.2-fold lower, 9.7 nM

Same assay, conditions: read-out: Jurkat HPD1_PDL1 IC50; Jurkat-PD-1 cells, PE-labeled PD-L1-Ig 20 nM final

Work on `CC(=O)NCC[C@@H]1NC(=O)[C@H](Cc2ccc(-c3ccccc3)cc2)NC(=O)[C@H](C(C)C)NC(=O)[C@H](Cc2c[nH]c3ccccc23)NC(=O)[C@H](CC(=O)O)NC(=O)[C@H](Cc2ccc(OCC(=O)O)cc2)NC(=O)[C@H](C(C)O)NC(=O)CSC[C@@H](C(N)=O)NC(=O)[C@H](C(C)O)NC(=O)[C@H](C(C)C)NC(=O)[C@H](CC2CCCCC2)NC(=O)[C@H](CCN)NC(=O)[C@@H](CC(C)C)NC(=O)[C@H](CCCN)NC1=O` (stereo partly drawn) [Compound 2606] ({CH2CO}-[Thr(3ξ)]Y(Carboxymethyl)DWV[Bip][Dab](Ac)[Orn][dL][Dab][Cha]V[Thr(3ξ)]C-NH2; thioether N-14) yielded an IC50 of 76.4 nM.
